Measured values published in patent US8093209B2, “Methods of suppressing microglial activation and systemic inflammatory responses” (Cognosci, Incorporated, priority 2002, dated 2012).

B1: RAP: 39 kD protein that blocks the binding of all known ligands to LRP (protein, UniProt P30533 35-357, looked up)
Alpha-2-macroglobulin …: YSREKNQPKPSPKRESGEEFRMEKLNQLWEKAQRLHLPPVRLAELHADLKIQERDELAWKKLKLDGLDEDGEKEARLIRNLNVILAKYGLDGKKDARQVTSNSLSGTQEDGLDDPRLEKLWHKAKTSGKFSGEELDKLWREFLHHKEKVHEYNVLLETLSRTEEIHENVISPSDLSDIKGSVLHSRHTELKEKLRSINQGLDRLRRVSHQGYSTEAEFEEPRVIDLWDLAQSANLTDKELEAFREELKHFEAKIEKHNHYQKQLEIAHEKLRHAESVGDGERVSRSREKHALLEGRTKELGYTVKKHLQDLSGRISRARHNEL

Legend:
[1] = test system: mice with midline closed head injury; assay: Murine closed head injury model (rotorod, weight, Morris Water Maze, survival); type: in vivo, mouse
Text: The mice received a midline closed head injury delivered by a pneumatic impactor at a speed of 6.8 m/s.

[2] = test system: primary rat neuronal/glial cultures exposed to NMDA; assay: NMDA-induced LDH release in primary neuronal-glial cultures; type: cell-based
Protocol: (§1) Primary neuronal-glial cultures were prepared from fetal Sprague-Dawley rat brains at 18 days of gestation as previously described (Pearlstein et al., 1998). Brains were harvested from 10-15 pups and dissected to separate cortex from meninges and subcortical structures using anatomical landmarks. Cortices were pooled and minced into 2 mm^3 pieces in a buffered salt solution supplemented with 20 mM HEPES buffer, pH 7.4, containing 0.25% trypsin. The tissue was incubated for 20 minutes at 37° C. in a 5% CO2/95% room air atmosphere, and washed twice with ice-cold, glutamine-free minimum essential medium (MEM; Life Technologies) containing 15 mM glucose, 5% fetal bovine serum (GIBCO), 5% horse serum (GIBCO), and 1% DNase-I (Sigma Chemical Co., St. Louis, Mo., USA). Tissue pieces were dissociated by trituration through a fire-polished 9-inch Pasteur pipette (I.D.=0.7 mm). The resultant suspension was centrifuged at 50×g for 10 min, the supernatant discarded, and the pellet resuspended in growth medium (MEM supplemented with 15 mM glucose, 5% fetal bovine serum, and 5% horse serum). The dissociated cells were plated to achieve a confluent monolayer using 4×10^5 cells per well in poly-D-lysine coated, 24-well culture plates (Falcon 3047; Becton Dickinson Co., Lincoln Park, N.J., USA). Cultures were maintained undisturbed at 37° C. in a humidified 5% CO2/95% room air atmosphere for 13-16 days prior to use.
Mature cultures (13-16 days in vitro) were washed with Mg^2+-free buffered salt solution (BSS) containing 20 mM HEPES buffer (pH7.4) and 1.8 mM CaCl2, prior to the addition of NMDA. Following NMDA exposure, cultures were maintained for 30 minutes at 37° C. in a 5% CO2/95% air atmosphere. The medium containing NMDA was then removed and replaced with MEM supplemented with 20 mM glucose. The cultures were returned to the incubator for 24 h. In all experiments, cellular damage was assessed at 24 h after exposure to NMDA by measurement of the activity of lactate dehydrogenase (LDH) released into the medium as described below. The non-competitive NMDA receptor antagonist, MK-801 (Tocris Cookson Ins., St. Louis, Mo.) at a concentration of 10 μM was used as a positive control. Preliminary dose-response studies were performed to determine the concentration of NMDA (100 μM) required to effect a near-maximal LDH release (ED90) as used in the present study.
The effect of human recombinant apoE (Panverra, Madison, Wis.) on 100 μM NMDA-induced LDH release was assessed and the dose-response curve was obtained (apoE: 0.1-10 μM final concentration). ApoE3, the most common human isoform, was added to the cultures 30 minutes prior to and removed following NMDA exposure. The effect of apoE peptide (133-149) on NMDA (100 μM or 300 μM)-induced LDH release was next assessed and the dose-response curve was obtained in a separate set of sister cultures that were simultaneously treated under one of the following conditions: (1) various doses of peptide (0.3 μM, 1 μM, 3 μM, 6 μM, 10 μM final concentration) were added to the culture immediately prior to and removed at the end of NMDA exposure; (2) no peptide, NMDA exposure; (3) no peptide, no NMDA exposure; (4) no peptide, NMDA exposure with 10 μM MK-801 for 30 minutes. The effect of a scrambled control peptide on NMDA-induced LDH release was similarly assessed.
The effect of time of administration of apoE peptide (133-149) on NMDA-induced LDH release was assessed in a separate set of sister cultures that were simultaneously treated under one of following conditions: (1) peptide was added to the culture medium 24 h prior to and removed immediately before exposure to NMDA; (2) peptide was added immediately prior to and removed at the end of the NMDA exposure; (3) peptide was added immediately following the 30 minutes NMDA exposure; (4) no peptide, NMDA exposure; (5) no peptide, no NMDA exposure. […]

[3] = test system: primary rat neuronal/glial cultures exposed to NMDA; assay: NMDA-induced 45Ca uptake by primary neuronal-glial cultures; type: cell-based; settings: 6 μM peptide
Protocol: as §1
Cellular calcium uptake from the extracellular space was assessed using ^45CaCl2 (American Radiolabeled Chemicals, St. Louis, Mo.). After washing the cultures with Mg^2+-free BSS containing 20 mM HEPES buffer, 6 μM peptide or 10 μM MK-801 was added to each well prior to and removed at the end of 100 μM NMDA exposure. ^45Ca (0.28 μCi/ml, 0.9 μCi/well) was added to each well immediately prior to NMDA exposure. The cultures were returned to the incubator and maintained at 37° C. Twenty minutes later, the exposure medium was removed and each well was washed 3 times with ice-cold Mg^2+-free BSS containing 20 mM HEPES buffer. The cells were subsequently lysed by addition of 0.2% sodium dodecyl sulfate (SDS). An aliquot from each well was added to a liquid scintillation vial containing 10 ml Cytoscint™ (ICN, Biochemical Research Product, CA) and radioactivity was determined by scintillation counting and normalized to cell count.

[4] = test system: LPS-induced serum TNFα and IL-6 in C57-BL6 mice; assay: Intravenous LPS sepsis model, serum TNFα and IL-6 by ELISA; type: in vivo, mouse; settings: peptide 6.6 mg/kg, LPS 375 μg/kg i.v.
Protocol: In these methods, 14-16 week old male C57-BL6 mice were injected with LPS (11.25 μg in 150 μl sterile isotonic saline, or 375 μg/kg) via the tail vein, and then immediately with vehicle (isotonic sterile saline) or ApoE (133-149) (at a dose of 200 μg, in 100 μl, or 6.6 mg/kg, prepared in isotonic saline). Serum samples were obtained in both LPS+vehicle and LPS+peptide groups (n=10 animals/group) at the following timepoints: time 0 (prior to injection), 1 hour, 3 hour and 24 hours after injection. Blood was collected by transcardial puncture, and allowed to clot for 30 minutes. Serum samples, obtained after centrifugation at 16,000 g for 5 minutes, were screened by solid phase ELISA for TNFα and IL-6. There were 20 animals per time point.

peritoneal macrophage = assay: Intracellular calcium in Fura-2/AM loaded peritoneal macrophage (Example 4); type: cell-based, mouse; settings: preincubation with 100 molar excess of RAP
Protocol: Thioglycolate-elicited peritoneal macrophage were harvested from 8-week old C57-BL6 mice, and plated at a density of 4×10^3 cells on glass coverslips, loaded with 2.5 μM Fura-2/AM for thirty minutes, and washed with Hanks buffered solution containing […] calcium. After exposure to 5 nM human recombinant apoE3 or E4, intracellular calcium was measured by Zeiss digital microscopy.

[5] = test system: thioglycollate-elicited peritoneal macrophages; assay: [Ca2+]i in Fura-2/AM treated single macrophages, digital imaging microscopy (Example 10); type: cell-based, mouse; settings: 1000-fold molar excess RAP, 10 mM NiCl2, or 1 μg/ml pertussis toxin 12 h
Protocol: Macrophage Harvesting. All experiments involving animals were first approved by the Duke Institutional Animal Care and Use Committee. Pathogen-free female C57BL/6 mice and ApoE deficient mice previously backcrossed 10 times to the C57BL/6 strain were obtained from the Jackson Laboratory (Bar Harbor, Me.). Thioglycollate-elicited peritoneal macrophages were harvested by peritoneal lavage using 10 ml of ice-cold Hanks' balanced salt solution containing 10 mM HEPES and 3.5 mM NaHCO3 (HHBSS), pH 7.4. The macrophages were pelleted by centrifugation at 4° C. at ˜800×g for 10 min and resuspended in RPMI 1640 media supplemented with 25 mM HEPES, 12.5 U/ml penicillin, 6.5 mg/ml streptomycin, and 5% fetal bovine serum.
Measurement of [Ca^2+]i in apoE and peptide treated macrophage. Changes in [Ca^2+]i levels in Fura-2/AM treated single cells were quantified using digital imaging microscopy in accordance with known techniques. Macrophages were plated on glass coverslips sitting in 35 mm Petri dishes at a density of 1.5×10^5 cells/cm^2, and allowed to adhere for 2 h in a humidified 5% CO2 incubator at 37° C. The non-adherent cells were aspirated and the monolayers were washed twice with HHBSS. 4 μM Fura-2/AM was incubated with the cells for thirty min in the dark at room temperature and [Ca^2+]i was subsequently measured using a digital imaging microscope in accordance with known techniques. […] To determine if signaling resulted from ligation of the ligand to LRP, cells were preincubated with a 1000-fold molar excess of RAP or 10 mM NiCl2, both of which inhibit ligand binding to LRP, for 5 min prior to stimulation with apoE or peptide. In experiments in which the involvement of a G protein was assessed, monolayers were incubated with 1 μg/ml pertussis toxin for 12 h at 37° C. and Ca^2+ measurements were made as stated above.

| Molecule | learning to find hidden platform, Morris Water Maze ([1]; 21 days after injury, p<0.05) | weight loss after closed head injury ([1]; high dose 406 ug/kg i.v.) | rotorod latency (motor deficit) after closed head injury ([1]; high dose 406 ug/kg i.v. 30 min after injury) | acute survival, Kaplan-Meier analysis ([1]; mouse, in vivo) | duration of protective effect of single dose ([1]; p<0.05) | protection against NMDA (LDH release), timing ([2]; 6 μM peptide 24 hours prior to NMDA exposure) | protection against NMDA (LDH release), timing ([2]; 6 μM peptide added following NMDA exposure) | protection against NMDA (LDH release), timing ([2]; 6 μM peptide concurrent with 100 μM NMDA) | protection against NMDA-induced cell damage, truncated peptides ([2]; 6 μM peptide, 100 μM NMDA) | peptide concentration at which protection was first observed ([2]; 100 μM NMDA) [μm] | peptide concentration of maximal protection ([2]; 100 μM NMDA) [µM] | protection against NMDA toxicity (LDH release) ([2]; 300 μM NMDA) | protection against NMDA toxicity (LDH release), dose response ([2]; peptide 0.3-10 μM, 100 μM NMDA) | NMDA-induced calcium influx compared to NMDA alone ([3]; 100 μM NMDA) | calcium influx in absence of NMDA ([3]; no NMDA) | serum IL-6 versus LPS+vehicle ([4]; 1 and 3 hours post-injection) | serum TNFα versus LPS+vehicle ([4]; 1 hour post-injection) | block of ApoE-induced intracellular calcium mobilization (peritoneal macrophage) | effect of preincubation on apoE-induced [Ca2+]i increase [5] |
| --- | --- | --- | --- | --- | --- | --- | --- | --- | --- | --- | --- | --- | --- | --- | --- | --- | --- | --- | --- |
| LRVRLAS HLRKLRKRLL (LRVRLASHLRKLRKRLL; fragment of receptor-binding domain of human ApoE; listed as Homo sapiens) [ApoE (133-149), 17-mer, ApoE positions 133-149] | appeared to provide protection in learning deficits | protected animals from this motor deficit (FIG. 10A), and concomitant weight loss | protected animals from this motor deficit | significant improvement in acute survival | sustained for five days following injury | modest but significant protection | no protection | robust protection | completely blocked 100 μM NMDA-induced cell death | 3 | 6 | failed to protect cells at any peptide concentration | robust, dose-dependent protection | significantly decreased calcium influx | no direct effect on calcium influx | significantly reduced | significantly reduced | – | – |
| B1 | – | – | – | – | – | – | – | – | – | – | – | – | – | – | – | – | – | did not block this effect | markedly attenuated the [Ca^2+]i increases |
